Tests used:
Assay in all cases: relative viability (nuclei count vs DMSO), 5 days (fraction); higher = more cells survive
Ibrutinib + Alpelisib = compound: C=CC(=O)N1CCC[C@@H](n2nc(-c3ccc(Oc4ccccc4)cc3)c3c(N)ncnc32)C1 [Ibrutinib] + Cc1nc(NC(=O)N2CCC[C@H]2C(N)=O)sc1-c1ccnc(C(C)(C)C(F)(F)F)c1 [Alpelisib] (partner 2 µM)
Procedure, shortened: (§1)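 Lung cancer cell lines were pin-tool dosed in 1536-well plates on the day after seeding, with either a lone drug or a fixed anchor-drug dose plus five library-drug doses (not always all listed) in √10 steps. Nuclei were counted on 4× images after 5 days. Relative viability is the ratio of treated-well to vehicle-well nuclei counts, with each value a median of duplicate plates.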

BMX-IN-1 + Vorinostat = compound: C=CC(=O)Nc1cc(-n2c(=O)ccc3cnc4ccc(-c5ccc(NS(C)(=O)=O)cc5)cc4c32)ccc1C [BMX-IN-1] + O=C(CCCCCCC(=O)Nc1ccccc1)NO [Vorinostat] (partner 1 µM)
Procedure, shortened: as §1

BMX-IN-1 + Trametinib = compound: C=CC(=O)Nc1cc(-n2c(=O)ccc3cnc4ccc(-c5ccc(NS(C)(=O)=O)cc5)cc4c32)ccc1C [BMX-IN-1] + CC(=O)Nc1cccc(-n2c(=O)n(C3CC3)c(=O)c3c(Nc4ccc(I)cc4F)n(C)c(=O)c(C)c32)c1 [Trametinib] (partner 0.02 µM)
Procedure, shortened: as §1

PAC-1 + Dasatinib = compound: C=CCc1cccc(/C=N/NC(=O)CN2CCN(Cc3ccccc3)CC2)c1O [PAC-1] + Cc1nc(Nc2ncc(C(=O)Nc3c(C)cccc3Cl)s2)cc(N2CCN(CCO)CC2)n1 [Dasatinib] (partner 0.075 µM)
Procedure, shortened: as §1

Row | Cell Line | relative viability (Ibrutinib + Alpelisib; first compound 0.005 µM) | relative viability (Ibrutinib + Alpelisib; first compound 0.01581 µM) | relative viability (Ibrutinib + Alpelisib; first compound 0.05 µM) | relative viability (Ibrutinib + Alpelisib; first compound 0.1581 µM) | relative viability (Ibrutinib + Alpelisib; first compound 0.5 µM) | relative viability (BMX-IN-1 + Vorinostat; first compound 0.02 µM) | relative viability (BMX-IN-1 + Vorinostat; first compound 0.2 µM) | relative viability (BMX-IN-1 + Vorinostat; first compound 0.6325 µM) | relative viability (BMX-IN-1 + Vorinostat; first compound 2 µM) | relative viability (BMX-IN-1 + Trametinib; first compound 0.02 µM) | relative viability (BMX-IN-1 + Trametinib; first compound 0.2 µM) | relative viability (BMX-IN-1 + Trametinib; first compound 0.6325 µM) | relative viability (BMX-IN-1 + Trametinib; first compound 2 µM) | relative viability (PAC-1 + Dasatinib; first compound 0.02 µM) | relative viability (PAC-1 + Dasatinib; first compound 0.06325 µM) | relative viability (PAC-1 + Dasatinib; first compound 0.2 µM) | relative viability (PAC-1 + Dasatinib; first compound 2 µM)
1 | IA-LM | 0.826 | 0.732 | 0.682 | 0.658 | 1 | 0.797 | 0.807 | 1.03 | 0.722 |  |  |  |  |  |  |  | 
2 | LC-2-ad | 0.874 | 0.944 | 0.936 | 0.836 | 0.758 | 0.74 | 0.766 | 0.674 | 0.783 | 1.02 | 0.945 | 0.929 | 0.94 | 0.552 | 0.629 | 0.603 | 0.489
3 | LCLC-97TM1 | 0.241 | 0.3 | 0.335 | 0.269 | 0.255 | 0.724 | 1.08 | 1.04 | 0.842 | 0.213 | 0.27 | 0.204 | 0.176 | 0.692 | 0.848 | 0.748 | 0.911
4 | LCLC-103H | 0.897 | 0.86 | 1.02 | 0.992 | 0.949 | 0.724 | 0.823 | 0.882 | 0.842 | 0.753 | 0.758 | 0.736 | 0.683 | 0.485 | 0.472 | 0.409 | 0.487
5 | LK-2 |  | 0.837 | 1.36 | 0.938 | 0.89 | 0.289 | 0.151 | 0.282 | 0.365 | 0.943 | 1.02 | 0.793 | 0.847 | 0.259 | 0.332 | 0.241 | 0.31
6 | LOU-NH91 | 0.652 | 0.597 | 0.592 | 0.67 | 0.48 |  | 0.939 | 1.05 | 0.915 |  | 0.814 | 0.849 | 0.784 | 0.505 | 0.551 | 0.541 | 0.599
7 | LU99A | 0.419 | 0.449 | 0.492 | 0.499 | 0.496 | 0.501 | 0.421 | 0.669 | 0.612 | 0.515 | 0.548 | 0.548 | 0.572 | 0.549 | 0.579 | 0.498 | 0.505
8 | LXF-289 |  | 1.03 |  |  | 0.908 | 0.824 | 0.876 | 0.912 | 0.882 | 0.722 | 0.704 | 0.761 | 0.752 | 0.228 | 0.226 | 0.192 | 0.223
9 | NCI-H23 | 0.514 | 0.695 | 0.566 | 0.76 | 0.6 | 0.654 | 0.728 | 0.602 | 0.564 | 0.38 | 0.423 | 0.318 | 0.361 | 0.734 | 0.887 | 0.826 | 0.948
10 | NCI-H322M | 0.752 | 0.807 | 0.779 | 0.838 | 0.486 | 0.872 | 0.983 | 1.01 | 0.876 | 0.501 | 0.504 | 0.532 | 0.443 | 0.226 | 0.264 | 0.259 | 0.256
11 | NCI-H358 | 0.817 | 0.603 | 0.504 | 0.887 | 0.36 | 0.816 | 0.811 | 0.788 | 0.652 | 0.119 | 0.124 | 0.127 | 0.123 | 0.179 | 0.164 | 0.158 | 0.135
12 | NCI-H441 | 0.908 | 0.54 | 0.868 | 0.871 | 0.711 | 0.691 | 1.03 | 0.903 | 0.778 | 0.451 | 0.53 | 0.613 | 0.548 | 0.593 | 0.628 | 0.438 | 0.573
13 | NCI-H460 | 0.5 | 0.319 | 0.496 | 0.536 | 0.538 | 1.05 |  | 1.11 | 0.782 | 0.131 | 0.136 | 0.236 | 0.181 | 0.524 | 0.477 | 0.464 | 0.521
14 | NCI-H520 | 0.892 | 0.797 | 1.04 | 1.09 | 0.759 | 0.8 | 0.718 | 0.666 | 0.696 | 0.892 | 0.721 | 0.741 | 0.733 | 0.172 | 0.213 | 0.19 | 0.225
15 | NCI-H522 |  |  |  |  |  | 0.979 | 0.786 | 0.832 | 0.968 | 0.687 | 0.805 | 0.728 | 0.744 | 0.881 | 0.91 | 0.894 | 0.899
16 | NCI-H1299 | 1.08 | 1.01 | 1.03 | 1.06 | 1.06 |  |  |  |  |  |  |  |  |  |  |  | 
17 | NCI-H1563 | 1 | 0.883 | 0.882 | 1.09 | 0.946 |  |  |  |  |  |  |  |  | 0.446 | 0.431 | 0.44 | 0.495
18 | NCI-H1623 |  |  |  |  |  |  |  |  |  |  |  |  |  | 0.513 | 0.556 | 0.605 | 0.533
19 | NCI-H1648 |  |  |  |  |  | 0.522 | 1 | 0.3 | 0.503 | 0.435 | 0.585 | 0.469 | 0.495 |  |  |  | 
20 | NCI-H1650 |  |  |  |  |  | 0.501 | 0.452 | 0.571 | 0.522 | 0.576 | 0.539 | 0.682 | 0.611 | 0.363 | 0.305 | 0.263 | 0.361
21 | NCI-H1703 | 0.273 | 0.362 | 0.362 | 0.397 | 0.243 |  |  |  |  |  |  |  |  |  |  |  | 
22 | NCI-H1792 | 0.716 | 0.698 | 0.764 | 0.782 | 0.65 |  |  |  |  | 0.645 | 0.485 | 0.44 | 0.391 | 0.996 | 0.77 | 0.763 | 0.755
23 | NCI-H2342 |  |  |  |  |  | 0.827 | 0.728 | 0.71 | 0.65 | 0.834 | 0.768 | 0.85 | 0.791 | 0.302 | 0.311 | 0.295 | 0.302
24 | SW 900 |  |  |  |  |  | 0.659 | 0.548 | 0.678 | 0.47 | 1.12 | 0.831 | 0.816 | 0.807 | 0.766 | 0.467 | 0.435 | 0.927

Reference: the supplement of paper PMC10307832
